Results on five compounds are retold here after patent US7589123B2, “Chemical compounds” (Phytopharm PLC, priority 2006, dated 2009).

Test [1] relates to α-smooth muscle actin (α-SMA) mRNA. As to the kind of experiment: Anti-remodelling activity in human lung fibroblasts (HFL1): TGFβ-induced α-SMA mRNA (Assay 4). Type of test: cell-based. Particulars: Homo sapiens, HFL1 cells, TGFβ 10 ng/ml, 24 h, read-out: Inhibition of α-SMA mRNA synthesis (%). The procedure, abridged:
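Real-time RT-PCR of α-SMA mRNA, GAPDH as reference, measured after 24 h exposure of low-serum-primed HFL1 cells to 10 ng/ml TGFβ with test compounds (3 and 30 μM) in 10% FBS medium. Readout is inhibition of TGFβ-driven α-SMA mRNA overexpression.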

For test [2], the system named is ovalbumin-sensitised mice. Description: Ovalbumin-sensitised mice, a chronic model of asthma in vivo (Assay 8). Particulars: for methacholine-induced increase in penH (enhanced pause) / Increase in penH: day 54; for methacholine-induced increase in penH (enhanced pause): methacholine challenge 50 mg/kg; for methacholine-induced increase in penH (enhanced pause) / eosinophil infiltration into the lung / IL-13 concentrations in the BAL / amount of lung remodelling (histopathology grading): oral gavage 20 days: compound 2 3, compound 32 30, budesonide 1, montelukast 10 mg/kg/day; for eosinophil infiltration into the lung: day 55, BAL cytospins; for Eosinophil infiltration / IL-4 concentration / IL-13 concentration / Histopathology score / Increase in penH: mean ± s.e.mean, oral gavage 20 days: 2 3 mg/kg/day, 32 30 mg/kg/day, budesonide 1 mg/kg/day, montelukast 10 mg/kg/day; for Eosinophil infiltration / IL-4 concentration / IL-13 concentration: BAL fluid day 55; for Eosinophil infiltration: sensitised 192.1 ± 33.2; for IL-4 concentration: sensitised 231.2 ± 62.4; for IL-13 concentration: sensitised 241.9 ± 89.3; for Histopathology score: lung remodelling, sensitised 541.6 ± 36.1; for Increase in penH: methacholine challenge, sensitised 193.0 ± 61.7. How it is done: Mice (BALB/c from Harlan-Olac) were sensitised to ovalbumin using two interperitoneal injections of ovalbumin (10 μg) and alum (200 μl) on day 1 and 14 followed by a 20 min, daily exposure to a ovalbumin aerosol (5%) on days 19-23 and then a thrice weekly 20 min, exposure to a ovalbumin aerosol (5%) on days 24-55. […] On day 54, mice were placed in BUXCO four chamber whole body plethysmographs and breathing-associated pressure changes were recorded which were then used to calculate enhanced pause (penH), a measurement of airways resistance, in response to a methacholine challenge.
On day 55 the mice were killed and brochoalveolar lavage (BAL) fluid was collected and cytospins prepared to measure eosinophil infiltration. In addition, concentrations of interleukin-4 (IL-4) and interleukin-13 (IL-13) were measured in the BAL fluid. Furthermore, lung samples were taken, examined by a histopathologist and scored using a grading system to describe the degree of lung remodelling.

Test [3] concerns ovalbumin-sensitised guinea pigs. Description: Ovalbumin-sensitised guinea pigs, a model of asthma in vivo (Assay 7). As to conditions: oral gavage 30 mg/kg/day for 7 days. The arrangement: species or system guinea pig. How it is done: Dunkin-Hartley guinea pigs were sensitised to ovalbumin using two interperitoneal injections of ovalbumin (20 μg) in Al(OH)3 gel (1.65 mg) on days 1 and 11. On day 25 compound 2 was administered by oral gavage (30 mg/kg/day) for 7 days. On day 31, approximately 2 h after the last administration of compound 2, each guinea pig was anaesthetised with urethane (1750 mg/kg, i.p.) and artificially ventilated via a tracheal cannula connected to a Fleisch pneumotachograph (size 00) and a differential pressure transducer (±2 cm H2O; PT5, Grass Astro-Med Inc., USA). Total pulmonary resistance (RL) was calculated online by integration of flow, tidal volume and transpulmonary pressure. Pulmonary resistance was recorded for approximately 5 min before ovalbumin (300 μg/ml, i.v) challenge and for approximately 15 min following ovalbumin challenge and was recorded in real time using a computer data acquisition system (Po-ne-Mah, USA).

In the case of `COc1cc(CCC(=O)CC(=O)C2(C)CC2)ccc1O` [Compound 6, 5-(4-Hydroxy-3-methoxyphenyl)-1-(1-methylcyclopropyl)-pentane-1,3-dione], in test [1], the inhibition at 3 µM is -12% and the inhibition at 30 µM worked out at 22%.

For the compound `COc1cc(CCC(=O)C(C)(C)C(=O)c2ccccc2)ccc1O` [Compound 32, 2,2-Dimethyl-5-(4-hydroxy-3-methoxy-phenyl)-1-phenyl-pentane-1,3-dione], in test [1], the inhibition at 3 µM is 13% and the inhibition at 30 µM was 58%. Moreover, in test [2], the “methacholine-induced increase in penH (enhanced pause)” value is “decreased”, the “eosinophil infiltration into the lung” value is recorded as “reduced”, the Eosinophil infiltration was 106.6 ± 19.9% of control and the IL-4 concentration is 168.0 ± 50.8% of control. For the same compound, in test [2], the IL-13 concentration was 148.7 ± 88.4% of control and the “Increase in penH” value was 153.5 ± 29.0% of control. In test [2] (day 55), the “IL-13 concentrations in the BAL” value is recorded as “reduced”, the “amount of lung remodelling (histopathology grading)” value is given as “reduced” and the Histopathology score was 339.3 ± 45.0% of control. In addition, the “IL-4 concentration in the BAL” value in test [2] (day 55, oral gavage 20 days: compound 32 30, budesonide 1, montelukast 10 mg/kg/day) is listed as “reduced”.

Regarding `COc1cc(CCC(=O)C(C)C(=O)c2ccccc2)ccc1O` (stereo not shown) [Compound 11, 5-(4-Hydroxy-3-methoxy-phenyl)-2-methyl-1-phenyl-pentane-1,3-dione], in test [1], the inhibition at 3 µM is 8% and the inhibition at 30 µM is 39%.

`COc1cc(CCC(=O)CC(=O)C(C)(C)C)ccc1O` [Compound 2, 6,6-Dimethyl-1-(4-hydroxy-3-methoxyphenyl)-heptane-3,5-dione]: in test [1], the inhibition at 3 µM was determined as 5% and the inhibition at 30 µM was determined as 27%. Besides, the “increase in pulmonary resistance following ovalbumin exposure” value in test [3] (ovalbumin 300 μg/kg i.v. challenge, vehicle control group 228±57%) is 132±15%. In addition, the “increase in pulmonary resistance compared with vehicle control” value in test [3] (ovalbumin i.v. challenge) is listed as “significantly lower than vehicle control”. Further, in test [2], the “methacholine-induced increase in penH (enhanced pause)” value is “decreased”, the “eosinophil infiltration into the lung” value is listed as “reduced”, the Eosinophil infiltration is 83.0 ± 10.8% of control and the IL-4 concentration is given as 238.2 ± 57.1% of control. For the same compound, in test [2], the IL-13 concentration is listed as 183.0 ± 60.9% of control and the “Increase in penH” value is reported as 107.4 ± 21.5% of control. Moreover, in test [2] (day 55), the “IL-13 concentrations in the BAL” value was “reduced”, the “amount of lung remodelling (histopathology grading)” value is reported as “reduced” and the Histopathology score is 450.0 ± 33.4% of control.

With `COc1cc(CCC(=O)CC(=O)c2ccccc2)ccc1O` [Compound 69, 5-(4-Hydroxy-3-methoxyphenyl)-1-phenyl-pentane-1,3-dione], in test [1], the inhibition at 3 µM came to 10% and the inhibition at 30 µM worked out at 34%.
